Test results from patent US10048243B2, “Automatic water quality surveillance apparatus” (priority 2016, dated 2018).

Assays:
[1] = system: fish reared within the water tank for fish; format: in vivo; settings: for effect on the fish: in vivo; for damage or injury of the fish caused by the pollution: small amount
From the text: This is because the oil keeps floating on a water surface thereof.
In this context, the present inventor has confirmed according to tests that the conventional automatic water quality surveillance apparatus with fish cannot sense the oil and/or the mold odor substances based on abnormal behavior of the fish.

[2] = system: cyprinodonts; parameters: species or system Oryzias latipes; settings: in vivo
From the text: Referring to FIG. 10, it is clear that the cyprinodonts 4e take unique action based on the kind of toxic substances.
In order to solve the problems, the present inventor has further devised a method including: putting a plurality (for example, 20) of cyprinodonts 4e into the water tank for fish 4d; photographing the cyprinodonts 4e by means of the CCD video camera 1 in a direction of bird's-eye to output data; and analyzing the data with the image processing device 1b.
In order to solve the problem of photographing one cyprinodont from the side wall, the inventor has performed: changing the side photographing system shown in FIG. 10 to the bird's-eye photographing system shown in FIG. 11; using the more (about 20) cyprinodonts; and developing new algorithm. In this way, the present inventor has solved the problem in recent years.
Furthermore, the present inventor has developed algorithm of issuing an alarm in this state.
When about 2 [ppm] concentration of potassium cyanide is contained in the raw water, the cyprinodonts 4e swim weakly toward a water flow to be carried away, thereby being latched by the capture net 4f.

SMILES | effect on the fish [1] | damage or injury of the fish caused by the pollution [1] | organ system of cyprinodonts damaged [2] | unique action taken by cyprinodonts [2]
CC1(C)[C@@H]2CC[C@@]1(C)[C@](C)(O)C2 [2-MIB, 2-methylisoborneol] | hardly affect the fish | neither to be damaged nor to be injured |  | 
COP(=S)(OC)Oc1ccc([N+](=O)[O-])c(C)c1 [Fenitrothion] |  |  | damages nervous systems | madly-rushing action
CC1CCCC2(C)CCCCC12O (stereo not drawn) [geosmin] | hardly affect the fish | neither to be damaged nor to be injured |  | 
